Bridge positions count the residues as written; N and C are the ends. Square brackets hold non-standard residues; d marks the D form. Peptide text beside a SMILES is read from it. 1Nal = N[C@@H](Cc1cccc2ccccc12)C(=O)O
Key:
Assay in all cases: cell-based
human Kv1.3 (CHO) = target: T1, human Kv1.3 (CHO) (Homo sapiens, UniProt P22001)
T1 construct: expressed in transfected cells; host or cells: CHO

human Kv1.1 (HEK293) = target: T2, human Kv1.1 (HEK293) (Homo sapiens, UniProt Q09470)
T2 construct: expressed in transfected cells; host or cells: HEK293

human Kv1.1 = human Kv1.1 (Homo sapiens, UniProt Q09470); set-up: expressed in transfected cells; host or cells: HEK293; conditions: Kv1.1 (IC50, pM)
human Kv1.3 channel = human Kv1.3 channel (Homo sapiens, UniProt P22001); type: cell-based
Sequence of human Kv1.3 channel (P22001 whole entry): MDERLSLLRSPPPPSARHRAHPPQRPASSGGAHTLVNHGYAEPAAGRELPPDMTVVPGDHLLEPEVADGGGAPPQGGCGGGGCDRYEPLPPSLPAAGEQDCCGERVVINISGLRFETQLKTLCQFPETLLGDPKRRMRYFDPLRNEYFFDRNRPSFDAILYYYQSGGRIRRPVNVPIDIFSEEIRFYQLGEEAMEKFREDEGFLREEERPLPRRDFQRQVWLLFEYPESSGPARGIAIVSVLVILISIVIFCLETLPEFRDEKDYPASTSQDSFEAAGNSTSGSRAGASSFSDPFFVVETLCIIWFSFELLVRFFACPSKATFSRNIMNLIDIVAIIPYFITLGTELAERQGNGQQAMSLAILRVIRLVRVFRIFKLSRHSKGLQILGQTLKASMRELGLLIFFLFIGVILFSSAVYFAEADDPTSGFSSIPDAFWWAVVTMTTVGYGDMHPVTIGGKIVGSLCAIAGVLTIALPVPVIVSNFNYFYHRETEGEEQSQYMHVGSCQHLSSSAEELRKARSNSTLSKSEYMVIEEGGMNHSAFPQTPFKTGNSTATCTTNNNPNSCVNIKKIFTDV

T1 sequence (P22001 whole entry): as above
T2 sequence (Q09470 whole entry): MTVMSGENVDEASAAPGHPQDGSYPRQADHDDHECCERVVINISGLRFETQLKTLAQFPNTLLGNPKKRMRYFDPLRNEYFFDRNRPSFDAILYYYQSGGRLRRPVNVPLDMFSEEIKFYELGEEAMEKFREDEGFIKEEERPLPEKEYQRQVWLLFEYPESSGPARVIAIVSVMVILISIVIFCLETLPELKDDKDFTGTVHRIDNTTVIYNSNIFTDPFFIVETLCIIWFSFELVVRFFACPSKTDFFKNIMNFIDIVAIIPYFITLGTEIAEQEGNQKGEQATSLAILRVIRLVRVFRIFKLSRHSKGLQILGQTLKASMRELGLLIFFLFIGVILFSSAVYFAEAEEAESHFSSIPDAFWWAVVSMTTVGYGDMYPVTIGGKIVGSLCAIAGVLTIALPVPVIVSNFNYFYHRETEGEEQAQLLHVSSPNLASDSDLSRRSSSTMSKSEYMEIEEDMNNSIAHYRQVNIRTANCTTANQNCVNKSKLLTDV
Sequence of human Kv1.1 (Q09470 whole entry): as above

Compound	IC50 (human Kv1.3 (CHO)) [nM]	IC50 (human Kv1.1 (HEK293)) [nM]	IC50 (human Kv1.1) [pM]	fold difference in Kv1.3 potency compared to Fc-L10-OSK1 (human Kv1.3 channel) [fold]
CC[C@H](C)[C@@H]1NC(=O)[C@H](CCCCN)NC(=O)[C@@H](NC(=O)[C@H](CCCCN)NC(=O)[C@@H](NC(=O)[C@H](CC(N)=O)NC(=O)[C@@H](NC(=O)[C@@H](NC(=O)[C@@H](NC(=O)CN)C(C)C)[C@@H](C)CC)[C@@H](C)CC)C(C)C)CSSC[C@@H]2NC(=O)[C@H](CCCCN)NC(=O)CNC(=O)[C@H](Cc3ccccc3)NC(=O)[C@H](CCCNC(=N)N)NC(=O)[C@H](CCSC)NC(=O)CNC(=O)[C@H](C)NC(=O)[C@H](CCCCN)NC(=O)[C@H](CCCCN)NC(=O)[C@@H]3CSSC[C@@H](C(=O)N[C@H](C(=O)N4CCC[C@H]4C(=O)N[C@@H](CCCCN)C(=O)O)[C@@H](C)O)NC(=O)[C@H](Cc4c[nH]cn4)NC(=O)[C@H](CSSC[C@H](NC(=O)[C@H](CCC(N)=O)NC(=O)[C@H](CCCNC(=N)N)NC(=O)[C@H](CO)NC1=O)C(=O)N[C@@H](CC(C)C)C(=O)N[C@@H](CCC(=O)O)C(=O)N1CCC[C@H]1C(=O)N3)NC(=O)[C@H](CCCCN)NC(=O)CNC(=O)[C@H](CC(N)=O)NC(=O)[C@H](C)NC2=O [M29A] (H-GVIINVKCKISRQCLEPCKKAGMRFGKCANGKCHCTPK-OH; disulfide 8-28, 14-33, 18-35)	0.0595	> 3.33	3470	
CC[C@H](C)[C@@H]1NC(=O)[C@H](CCCCN)NC(=O)[C@@H](NC(=O)[C@H](CCCCN)NC(=O)[C@@H](NC(=O)[C@H](CC(N)=O)NC(=O)[C@@H](NC(=O)[C@@H](NC(=O)[C@@H](NC(=O)CN)C(C)C)[C@@H](C)CC)[C@@H](C)CC)C(C)C)CSSC[C@@H]2NC(=O)[C@H](CCCCN)NC(=O)CNC(=O)[C@H](Cc3ccccc3)NC(=O)[C@H](Cc3cccc4ccccc34)NC(=O)[C@H](CCSC)NC(=O)CNC(=O)[C@H](C)NC(=O)[C@H](CCCCN)NC(=O)[C@H](CCCCN)NC(=O)[C@@H]3CSSC[C@@H](C(=O)N[C@H](C(=O)N4CCC[C@H]4C(=O)N[C@@H](CCCCN)C(=O)O)[C@@H](C)O)NC(=O)[C@H](Cc4c[nH]cn4)NC(=O)[C@H](CSSC[C@H](NC(=O)[C@H](CCC(N)=O)NC(=O)[C@H](CCCNC(=N)N)NC(=O)[C@H](CO)NC1=O)C(=O)N[C@@H](CC(C)C)C(=O)N[C@@H](CCC(=O)O)C(=O)N1CCC[C@H]1C(=O)N3)NC(=O)[C@H](CCCCN)NC(=O)CNC(=O)[C@H](CC(N)=O)NC(=O)[C@H](CCSC)NC2=O [R24Nal] (H-GVIINVKCKISRQCLEPCKKAGM[1Nal]FGKCMNGKCHCTPK-OH; disulfide 8-28, 14-33, 18-35)	0.0453	0.00285		
CC[C@H](C)[C@@H]1NC(=O)[C@H](CCCCN)NC(=O)[C@@H](NC(=O)[C@H](CCCCN)NC(=O)[C@@H](NC(=O)[C@H](CC(N)=O)NC(=O)[C@@H](NC(=O)[C@@H](NC(=O)[C@@H](NC(=O)CN)C(C)C)[C@@H](C)CC)[C@@H](C)CC)C(C)C)CSSC[C@@H]2NC(=O)[C@H](CCCCN)NC(=O)CNC(=O)[C@H](Cc3ccccc3)NC(=O)[C@H](CCCNC(=N)N)NC(=O)[C@H](CCSC)NC(=O)CNC(=O)[C@H](C)NC(=O)[C@H](CCCCN)NC(=O)[C@H](CCCCN)NC(=O)[C@@H]3CSSC[C@@H](C(=O)N[C@H](C(=O)N4CCC[C@H]4C(=O)N[C@@H](CCCCN)C(=O)O)[C@@H](C)O)NC(=O)[C@H](Cc4c[nH]cn4)NC(=O)[C@H](CSSC[C@H](NC(=O)[C@H](CCC(N)=O)NC(=O)[C@H](CCCNC(=N)N)NC(=O)[C@H](C)NC1=O)C(=O)N[C@@H](CC(C)C)C(=O)N[C@@H](CCC(=O)O)C(=O)N1CCC[C@H]1C(=O)N3)NC(=O)[C@H](CCCCN)NC(=O)CNC(=O)[C@H](CC(N)=O)NC(=O)[C@H](CCSC)NC2=O [S11A] (H-GVIINVKCKIARQCLEPCKKAGMRFGKCMNGKCHCTPK-OH; disulfide 8-28, 14-33, 18-35)	0.0408	0.113		
CC[C@H](C)[C@@H]1NC(=O)[C@H](CCCCN)NC(=O)[C@@H](NC(=O)[C@H](CCCCN)NC(=O)[C@@H](NC(=O)[C@H](CC(N)=O)NC(=O)[C@@H](NC(=O)[C@@H](NC(=O)[C@@H](NC(=O)CN)C(C)C)[C@@H](C)CC)[C@@H](C)CC)C(C)C)CSSC[C@@H]2NC(=O)[C@H](CCCCN)NC(=O)CNC(=O)[C@H](Cc3ccccc3)NC(=O)[C@H](CCCNC(=N)N)NC(=O)[C@H](CCSC)NC(=O)CNC(=O)[C@H](C)NC(=O)[C@H](CCCCN)NC(=O)[C@H](CCCCN)NC(=O)[C@@H]3CSSC[C@@H](C(=O)N[C@@H](CCCNC(=N)N)C(=O)N4CCC[C@H]4C(=O)N[C@@H](CCCCN)C(=O)O)NC(=O)[C@H](Cc4c[nH]cn4)NC(=O)[C@H](CSSC[C@H](NC(=O)[C@H](CCC(N)=O)NC(=O)[C@H](CCCNC(=N)N)NC(=O)[C@H](CO)NC1=O)C(=O)N[C@@H](CC(C)C)C(=O)N[C@@H](CCC(=O)O)C(=O)N1CCC[C@H]1C(=O)N3)NC(=O)[C@H](CCCCN)NC(=O)CNC(=O)[C@H](CC(N)=O)NC(=O)[C@H](CCSC)NC2=O [T36R] (H-GVIINVKCKISRQCLEPCKKAGMRFGKCMNGKCHCRPK-OH; disulfide 8-28, 14-33, 18-35)	1.31	0.0266		
CC[C@H](C)[C@@H]1NC(=O)[C@H](CCCCN)NC(=O)[C@@H](NC(=O)[C@H](CCCCN)NC(=O)[C@@H](NC(=O)[C@H](CC(N)=O)NC(=O)[C@@H](NC(=O)[C@@H](NC(=O)[C@H](CCC(=O)O)NC(=O)CN)[C@@H](C)CC)[C@@H](C)CC)C(C)C)CSSC[C@@H]2NC(=O)[C@H](CCCCN)NC(=O)CNC(=O)[C@H](Cc3ccccc3)NC(=O)[C@H](CCCNC(=N)N)NC(=O)[C@H](CCSC)NC(=O)CNC(=O)[C@H](C)NC(=O)[C@H](CCCCN)NC(=O)[C@H](CCCCN)NC(=O)[C@@H]3CSSC[C@@H](C(=O)N[C@H](C(=O)N4CCC[C@H]4C(=O)N[C@@H](CCCCN)C(=O)O)[C@@H](C)O)NC(=O)[C@H](Cc4c[nH]cn4)NC(=O)[C@H](CSSC[C@H](NC(=O)[C@H](CCC(N)=O)NC(=O)[C@H](CCCNC(=N)N)NC(=O)[C@H](CO)NC1=O)C(=O)N[C@@H](CC(C)C)C(=O)N[C@@H](CCC(=O)O)C(=O)N1CCC[C@H]1C(=O)N3)NC(=O)[C@H](CCCCN)NC(=O)CNC(=O)[C@H](CC(N)=O)NC(=O)[C@H](CCSC)NC2=O [V2E] (H-GEIINVKCKISRQCLEPCKKAGMRFGKCMNGKCHCTPK-OH; disulfide 8-28, 14-33, 18-35)	0.0362	0.035		
CC[C@H](C)[C@@H]1NC(=O)[C@H](CCCCN)NC(=O)[C@@H](NC(=O)[C@H](CCCCN)NC(=O)[C@@H](NC(=O)[C@H](CC(N)=O)NC(=O)[C@@H](NC(=O)[C@@H](NC(=O)[C@H](CCCNC(=N)N)NC(=O)CN)[C@@H](C)CC)[C@@H](C)CC)C(C)C)CSSC[C@@H]2NC(=O)[C@H](CCCCN)NC(=O)CNC(=O)[C@H](Cc3ccccc3)NC(=O)[C@H](CCCNC(=N)N)NC(=O)[C@H](CCSC)NC(=O)CNC(=O)[C@H](C)NC(=O)[C@H](CCCCN)NC(=O)[C@H](CCCCN)NC(=O)[C@@H]3CSSC[C@@H](C(=O)N[C@H](C(=O)N4CCC[C@H]4C(=O)N[C@@H](CCCCN)C(=O)O)[C@@H](C)O)NC(=O)[C@H](Cc4c[nH]cn4)NC(=O)[C@H](CSSC[C@H](NC(=O)[C@H](CCC(N)=O)NC(=O)[C@H](CCCNC(=N)N)NC(=O)[C@H](CO)NC1=O)C(=O)N[C@@H](CC(C)C)C(=O)N[C@@H](CCC(=O)O)C(=O)N1CCC[C@H]1C(=O)N3)NC(=O)[C@H](CCCCN)NC(=O)CNC(=O)[C@H](CC(N)=O)NC(=O)[C@H](CCSC)NC2=O [V2R] (H-GRIINVKCKISRQCLEPCKKAGMRFGKCMNGKCHCTPK-OH; disulfide 8-28, 14-33, 18-35)	0.133	0.0258		
CC[C@H](C)[C@@H]1NC(=O)[C@H](CCCCN)NC(=O)[C@@H](NC(=O)[C@H](CCCCN)NC(=O)[C@H](C)NC(=O)[C@H](CC(N)=O)NC(=O)[C@@H](NC(=O)[C@@H](NC(=O)[C@@H](NC(=O)CN)C(C)C)[C@@H](C)CC)[C@@H](C)CC)CSSC[C@@H]2NC(=O)[C@H](CCCCN)NC(=O)CNC(=O)[C@H](Cc3ccccc3)NC(=O)[C@H](CCCNC(=N)N)NC(=O)[C@H](CCSC)NC(=O)CNC(=O)[C@H](C)NC(=O)[C@H](CCCCN)NC(=O)[C@H](CCCCN)NC(=O)[C@@H]3CSSC[C@@H](C(=O)N[C@H](C(=O)N4CCC[C@H]4C(=O)N[C@@H](CCCCN)C(=O)O)[C@@H](C)O)NC(=O)[C@H](Cc4c[nH]cn4)NC(=O)[C@H](CSSC[C@H](NC(=O)[C@H](CCC(N)=O)NC(=O)[C@H](CCCNC(=N)N)NC(=O)[C@H](CO)NC1=O)C(=O)N[C@@H](CC(C)C)C(=O)N[C@@H](CCC(=O)O)C(=O)N1CCC[C@H]1C(=O)N3)NC(=O)[C@H](CCCCN)NC(=O)CNC(=O)[C@H](CC(N)=O)NC(=O)[C@H](CCSC)NC2=O [V6A] (H-GVIINAKCKISRQCLEPCKKAGMRFGKCMNGKCHCTPK-OH; disulfide 8-28, 14-33, 18-35)	0.174	0.0128		
CC[C@H](C)[C@@H]1NC(=O)[C@H](CCCCN)NC(=O)[C@@H](NC(=O)[C@H](CCCCN)NC(=O)[C@H](CCC(=O)O)NC(=O)[C@H](CC(N)=O)NC(=O)[C@@H](NC(=O)[C@@H](NC(=O)[C@@H](NC(=O)CN)C(C)C)[C@@H](C)CC)[C@@H](C)CC)CSSC[C@@H]2NC(=O)[C@H](CCCCN)NC(=O)CNC(=O)[C@H](Cc3ccccc3)NC(=O)[C@H](CCCNC(=N)N)NC(=O)[C@H](CCSC)NC(=O)CNC(=O)[C@H](C)NC(=O)[C@H](CCCCN)NC(=O)[C@H](CCCCN)NC(=O)[C@@H]3CSSC[C@@H](C(=O)N[C@H](C(=O)N4CCC[C@H]4C(=O)N[C@@H](CCCCN)C(=O)O)[C@@H](C)O)NC(=O)[C@H](Cc4c[nH]cn4)NC(=O)[C@H](CSSC[C@H](NC(=O)[C@H](CCC(N)=O)NC(=O)[C@H](CCCNC(=N)N)NC(=O)[C@H](CO)NC1=O)C(=O)N[C@@H](CC(C)C)C(=O)N[C@@H](CCC(=O)O)C(=O)N1CCC[C@H]1C(=O)N3)NC(=O)[C@H](CCCCN)NC(=O)CNC(=O)[C@H](CC(N)=O)NC(=O)[C@H](CCSC)NC2=O [V6E] (H-GVIINEKCKISRQCLEPCKKAGMRFGKCMNGKCHCTPK-OH; disulfide 8-28, 14-33, 18-35)	0.0177	0.00243		
Fc-L10-OSK1[K7S]: OSK1-peptibody with lysine to serine substitution at position 7				2

Source: patent publication US20090299044A1 (priority 2006, published 2009)
